From patent US9403802B2, “Heterocyclic compound and use therefor” (Takeda Pharmaceutical Company Limited, priority 2012, dated 2016)

Columns and labels:
[1] = Central migration (Kp value) measurement test; format: in vivo; conditions: male, Jcl ICR, mouse, brain/plasma, mice, ratio of intracerebral (μg/g) to plasma (μg/mL) concentration; for Kp at 1 h: po, 1 mg/kg, 1 mg/10 mL/kg
Protocol: A. Compounds of Examples 6 and 10 (Intravenous Administration: i.v.) […]
animal: male Jcl ICR mice 7-week-old n=3 […]
administration conditions: intravenous administration 0.20 mg/l mL/kg (4 compounds/cassette administration) administration medium: N,N-dimethylacetamide (DMA)/1,3-Butanediol (1:1) sample: plasma, brain (homogenate was prepared by adding 4-fold amount of saline) plasma sampling time: 0.25 hr brain sampling time: 0.25 hr […]
animal: male Jcl ICR mice 8-week-old n=3 […]
administration medium: DMA/1,3-Butanediol (1:1) […]
plasma sampling time: 0.5 hr brain sampling time: 0.5 hr […]
column: Shimadzu Shim-pack XR-ODS (2.2 μm, 2.0×30 mm) mobile phase A: 10 mmol/L ammonium formate/formic acid (100:0.2, v/v) mobile phase B: acetonitrile/formic acid (100:0.2, v/v) […]
column temperature: 50° C. sample injection volume: 1 μL (Example 6), 2 μL (Example 10) plasma pre-treatment conditions: A standard solution dissolution solvent (DMSO) or a standard solution (5 μL) was added to a sample (50 μL). Acetonitrile (150 μL) containing the internal standard substance was added, and the mixture was vigorously stirred and centrifuged at 5250 rpm. A dilution solvent (160 μL) was added to the centrifuged supernatant (60 μL). The solution (40 μL) was taken, and the dilution solvent (160 μL) was added to give a sample solution for compound plasma concentration measurement (mobile phase A:mobile phase B=7:3 (v/v) was used as the dilution solvent). brain pre-treatment conditions: The standard solution dissolution solvent (DMSO) or standard solution (5 μL) was added to a sample (50 μL). Acetonitrile (150 μL) containing the internal standard substance was added, and the mixture was vigorously stirred, and centrifuged at 5250 rpm. A dilution solvent (160 μL) was added to the centrifuged supernatant (60 μL). The solution (40 μL) was taken, and the dilution solvent (160 μL) was added to give a sample solution for intracerebral compound concentration measurement (mobile phase A:mobile phase B=7:3 (v/v) was used as the dilution solvent). B. Compounds of Examples 92 and 94 (Oral Administration: p.o.) animal: male Jcl ICR mice 10-week-old n=3 feeding: nonfasting administration conditions: oral administration 1 mg/10 mL/kg (5 compounds/cassette administration) administration medium: 0.5% methylcellulose solution sample: plasma, brain (homogenate was prepared by adding 4-fold amount of saline) plasma sampling time: 1 hr brain sampling time: 1 hr HPLC Analysis Conditions column: Shimadzu Shim-pack XR-ODS (2.2 μm, 2.0×30 mm) mobile phase A: 10 mmol/L ammonium formate/formic acid (100:0.2, v/v) mobile phase B: acetonitrile/formic acid (100:0.2, v/v) flow rate: 0.7 mL/min. column temperature: 50° C. sample injection volume: 1 μL […]

[2] = target: T1, human M1 receptor (hCHRM1) (Homo sapiens, UniProt P11229); experiment: Measurement of cholinergic muscarinic M1 receptor positive allosteric modulator (M1PAM) activity, calcium fluorescence (FLIPRtetra); format: cell-based; conditions: for activity (%) at 10 μM: test compound 10 μM with acetylcholine at EC20 (final 0.6 nM), CHO-K1 cells expressing hCHRM1, 100% = acetylcholine 1 μM, 0% = DMSO
T1 construct: expressed in transfected cells; host or cells: CHO-K1
T1 sequence (P11229 1-460): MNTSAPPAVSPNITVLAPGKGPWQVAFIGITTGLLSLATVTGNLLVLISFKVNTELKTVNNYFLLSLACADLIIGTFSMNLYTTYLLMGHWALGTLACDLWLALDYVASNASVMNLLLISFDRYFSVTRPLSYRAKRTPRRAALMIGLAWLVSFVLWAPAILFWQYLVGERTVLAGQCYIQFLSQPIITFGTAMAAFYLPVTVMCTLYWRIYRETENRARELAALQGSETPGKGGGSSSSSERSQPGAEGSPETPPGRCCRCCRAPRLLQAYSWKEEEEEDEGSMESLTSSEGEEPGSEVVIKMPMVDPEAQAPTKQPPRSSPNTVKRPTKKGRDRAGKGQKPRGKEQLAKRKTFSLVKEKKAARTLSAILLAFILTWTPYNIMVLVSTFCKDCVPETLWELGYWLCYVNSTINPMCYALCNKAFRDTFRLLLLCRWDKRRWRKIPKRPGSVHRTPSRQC
Protocol: The activity of a test compound in the presence of acetylcholine at EC20 concentration (final concentration 0.6 nM), which affords an action corresponding to 20% of the maximum activity, was measured as M1PAM activity. The method is as follows. CHO-K1 cells forcibly expressing a human M1 receptor (hCHRM1) were plated on a 384-well black clear bottom plate (BD Falcon) at 5,000 cells/well, and cultured in an incubator at 37° C., 5% CO2 for 1 day. The medium in the cell plate was removed, and assay buffer A (Recording medium (DOJINDO LABORATORIES), 0.1% bovine serum albumin (BSA) (Wako Pure Chemical Industries, Ltd.), 2.5 μg/mL Fluo-4 AM (DOJINDO LABORATORIES), 0.08% Pluronic F127 (DOJINDO LABORATORIES), 1.25 mM probenecid (DOJINDO LABORATORIES)) containing a calcium indicator was added at 30 μL/well. The cells were left standing in the incubator at 37° C., 5% CO2 for 30 min, and further left standing at room temperature for 30 min. A test compound prepared by diluting with assay buffer B (HBSS (Invitrogen), 20 mM HEPES (Invitrogen), 0.1% BSA) containing 2.4 nM acetylcholine was added at 10 μL/well, and the fluorescence was measured by FLIPRtetra (Molecular Devices) for 1 min every 1 second. With the definition that the amount of change in the fluorescence on addition of acetylcholine (final concentration 1 μM) is 100% and that on addition of DMSO instead of a test compound is 0%, the activity (%) of the test compound and the inflection point in the concentration-dependent curve of the test compound were calculated as IP values.

SMILES | Kp at 0.25 h ([1]; iv, 0.2 mg/kg, 0.2 mg/1 mL/kg, sampling time 0.25 hr) | EC50 [2] [nM] | activity (%) at 10 μM [2] [%] | Kp at 0.5 h ([1]; iv, 0.2 mg/kg, 0.2 mg/1 mL/kg, sampling time 0.5 hr) | Kp at 1 h [1]
COc1ccc(Cn2cc(C(=O)N[C@H]3CCOC[C@@H]3O)c(=O)c3c(F)ccc(F)c32)cc1 (racemic) [Example 6, 1,5-anhydro-2,3-dideoxy-3-({[5,8-difluoro-1-(4-methoxybenzyl)-4-oxo-1,4-dihydroquinolin-3-yl]carbonyl}amino)-DL-threo-pentitol] | 0.1 | 16 | 98 |  | 
COc1ccc(Cn2cc(C(=O)N[C@H]3CCCC[C@@H]3O)c(=O)c3c(F)ccc(F)c32)cc1 (racemic) [Example 10, 5,8-difluoro-N-[(1,2-trans)-2-hydroxycyclohexyl]-1-(4-methoxybenzyl)-4-oxo-1,4-dihydroquinoline-3-carboxamide] |  | 55 | 103 | 0.33 | 
O=C(N[C@H]1CCC[C@@H]1O)c1cn(Cc2ccc(-n3cccn3)cc2)c2c(F)cccc2c1=O (racemic) [Example 92, 8-fluoro-N-[(1,2-trans)-2-hydroxycyclopentyl]-4-oxo-1-[4-(1H-pyrazol-1-yl)benzyl]-1,4-dihydroquinoline-3-carboxamide] |  | 55 | 104 |  | 0.16
Cc1nn(C)cc1-c1ccc(Cn2cc(C(=O)N[C@H]3CCC[C@@H]3O)c(=O)c3ccccc32)cc1 (racemic) [Example 94, 1-[4-(1,3-dimethyl-1H-pyrazol-4-yl)benzyl]-N-[(1,2-trans)-2-hydroxycyclopentyl]-4-oxo-1,4-dihydroquinoline-3-carboxamide] |  | 8.5 | 95 |  | 0.03
NC(=O)c1ccc(Cn2cc(C(=O)N[C@H]3CCCC[C@@H]3O)c(=O)c3ccccc32)cc1 [Example 78, 1-(4-carbamoylbenzyl)-N-[(1S,2S)-2-hydroxycyclohexyl]-4-oxo-1,4-dihydroquinoline-3-carboxamide] |  | 2.2 | 86 |  | 
